Assay results as given in US11613517B2, “Amide prodrugs of small molecule nuclear receptor modulators” (OREGON HEALTH & SCIENCE UNIVERSITY, priority 2018, dated 2023).

Biological target: T1, FAAH (Mus musculus, UniProt O08914)
T1 construct: from tissue; host or cells: live wild type male C57Bl/6 mice (in vivo; brain and serum analysed)
T1 sequence (O08914 1-579): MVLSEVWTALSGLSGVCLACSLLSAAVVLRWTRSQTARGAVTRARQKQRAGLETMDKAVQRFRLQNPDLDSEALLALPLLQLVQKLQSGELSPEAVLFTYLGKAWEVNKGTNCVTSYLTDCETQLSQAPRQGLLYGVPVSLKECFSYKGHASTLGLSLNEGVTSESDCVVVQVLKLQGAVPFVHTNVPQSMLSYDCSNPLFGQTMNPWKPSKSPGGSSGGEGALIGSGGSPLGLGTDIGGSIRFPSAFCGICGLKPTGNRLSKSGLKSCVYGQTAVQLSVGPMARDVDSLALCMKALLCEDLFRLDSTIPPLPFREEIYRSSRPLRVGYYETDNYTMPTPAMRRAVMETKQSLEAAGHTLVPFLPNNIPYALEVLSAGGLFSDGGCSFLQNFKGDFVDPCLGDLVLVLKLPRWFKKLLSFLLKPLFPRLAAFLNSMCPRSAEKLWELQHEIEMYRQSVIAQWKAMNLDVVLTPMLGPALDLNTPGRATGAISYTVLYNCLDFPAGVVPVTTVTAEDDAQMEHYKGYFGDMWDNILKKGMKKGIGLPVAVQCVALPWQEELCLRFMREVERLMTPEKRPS
Test: FAAH Inhibition Study: prodrug alone or after FAAH inhibitor PF-3845 in mice
Settings: FIG. 12, in vivo
Experimental: Two cohorts of three mice were injected once intraperitoneally (i.p.) with prodrug at 9.14 μmol/kg. One cohort was injected 1 h prior to prodrug administration with a 1 mg/kg dose of FAAH inhibitor PF-3845. Euthanasia was performed on each cohort 1 h after injection with the prodrug and the tissues and blood were harvested. Tissues were immediately frozen and blood was kept on ice for a minimum of 30 min and then spun down at 7500×g for 15 min. Serum ([…]) was collected and was stored with tissues at −80° C. until samples were processed. Samples were processed as described above.
All parent drugs and d6-sobetirome internal standard were analyzed using a QTRAP 4000 hybrid/triple quadrupole linear ion trap mass spectrometer (Applied biosystems) with electrospray ionization (ESI) in negative mode. The mass spectrometer was interfaced to a Shimadzu (Columbia, Md.) SIL-20AC XR auto-sampler followed by 2 LC-20AD XR LC pumps and analysis on an Applied Biosystems/SCIEX QTRAP 4000 instrument (Foster City, Calif.). […] Data were acquired using SCIEX Analyst 1.6.2 software (Framingham, Mass., USA) and analyzed using Multiquant 3.0.2
Statistical analyses were performed using the two-tailed Student t test comparing individual groups with the appropriate vehicle group or as noted. […] AUC values were calculated and data was plotted and analyzed using GraphPad Prism 7. […]

## CNC(=O)COc1cc(C)c(Cc2cc(C#Cc3ccc([N+](=O)[O-])cc3)c(O)c(C(C)C)c2)c(C)c1 [NRMA-2, 2-(4-(4-hydroxy-3-isopropyl-5-((4-nitrophenyl)ethynyl)benzyl)-3,5-dimethylphenoxy)-N-methylacetamide]
  In vivo validation as substrate for the FAAH enzyme: substrate for the FAAH enzyme
